# Experimental data published in US20120258937A1, “Targeting Estrogen Receptors in the Treatment of Lymphangioleiomyomatosis” (Fox Chase Cancer Center, priority 2011, published 2012).
# What was measured:
# ELT3 cells = experiment: ELT3 xenograft tumor growth, lung metastasis and survival in SCID mice; format: in vivo; details: for effect on estradiol-promoted lung metastases: ELT3 xenograft model of LAM; for mean tumor area: post-inoculation week eight
# Experimental: Animal studies. All animal work was performed in accordance with protocols approved by the Institutional Animal Care and Use Committee at the Brigham and Women's Hospital. Female ovariectomized and male CB17-SCID mice, six to eight weeks of age, were purchased from Taconic (Hudson, N.Y.). One week prior to ELT3 cell injection, 17-beta estradiol or placebo pellets (2.5 mg, 90-day release, Innovative Research America, Sarasota, Fla.) were implanted. For xenograft tumor establishment, 2×10^6 ELT3 cells were bilaterally injected into the rear flanks of the mice. Lung metastases were scored from five-micron H & E stained sections of each lobe by observers blinded to the experimental conditions. […]
# Statistical analyses. Statistical analyses were performed using Student's t-test when comparing two groups. Results are presented as means+SD (Standard Deviation) of experiments performed in triplicate. Differences were considered significant at p<0.05.
# ELT3 xenograft tumors = experiment: Analysis of ELT3 xenograft tumors (H&E, immunohistochemistry, TUNEL, immunoblot, real-time RT-PCR); format: in vivo, mice; details: for MMP2 protein level vs placebo-treated: immunoblotting
# Experimental: Animal studies. All animal work was performed in accordance with protocols approved by the Institutional Animal Care and Use Committee at the Brigham and Women's Hospital. Female ovariectomized and male CB17-SCID mice, six to eight weeks of age, were purchased from Taconic (Hudson, N.Y.). One week prior to ELT3 cell injection, 17-beta estradiol or placebo pellets (2.5 mg, 90-day release, Innovative Research America, Sarasota, Fla.) were implanted. For xenograft tumor establishment, 2×10^6 ELT3 cells were bilaterally injected into the rear flanks of the mice. Lung metastases were scored from five-micron H & E stained sections of each lobe by observers blinded to the experimental conditions. Fulvestrant (1 mg/day, intramuscular injection) or Doxycycline (0.7 mg/day, 60-day release, Innovative Research America) treatments were initiated one day post-cell inoculation.
# (§1) Immunoblotting and antibodies. Cells were rinsed once in ice-cold PBS and lysed in m-PER buffer (50 mM HEPES, pH 7.5, 50 mM NaCl, 5 mM EDTA, 50 mM NaF, 10 mM Na4P2O7, and 1% Triton, Pierce). Lysates were resolved by SDS-PAGE electrophoresis and transferred onto Immobilon P membranes (Millipore, Bedford, Mass.). The following antibodies were used for Western blot analysis: anti-MMP2 (Chemicon), anti-phospho-p42/44 MAPK (T202/Y204), anti-p42/44MAPK, anti-Collagen Type IV (Abnova), anti-Ki67 (BioGenex, San Ramon, Calif.), anti-beta-actin (Sigma), and anti-ERα (Santa Cruz, Calif.). Western blots were developed using horseradish peroxidase-conjugated secondary antibodies and ECL chemiluminescence (Amersham Biosciences, Piscataway, N.J.).
# (§2) Immunohistochemistry. Sections were deparaffinized, incubated overnight with primary antibodies at 4° C. in a humidified chamber and then rinsed and incubated with biotinylated secondary antibodies for 30 minutes at room temperature. Slides were developed using the Broad Spectrum AEC Histostain®-Plus or Histostain®-Plus kit (Invitrogen), and they were counterstained with Gill's Hematoxylin. TUNEL assay reagent was from Roche. Gelatin zymography. Conditioned media from cultured cells were collected, filtered through […] Nalgene filter, and subjected for gel electrophoresis on 10% SDS-PAGE containing 0.1% gelatin (Invitrogen). MMP2 activity was detected according to the manufacture's protocol. Real-time RT-PCR. Total RNA from cultured cells and xenograft tumors was isolated using RNeasy® Mini Kit (Qiagen, Valencia, Calif.). Gene expression was quantified using One-Step qRT-PCR Kits (Invitrogen) in the Applied Biosystems Real-Time PCR System and normalized to beta-actin control amplification.
# MMP2 [1] = experiment: MMP2 activity in ELT3 conditioned media by gelatin zymography; format: cell-based, rat; details: ELT3 cells
# Experimental: (§3) Cell culture and reagents. ELT-3 cells (Eker rat uterine leiomyoma-derived smooth muscle cells) were cultured in IIA complete medium supplemented with 15% fetal bovine serum (FBS). Prior to the in vitro experiments, cells were maintained in media supplemented with 10% charcoal-stripped FBS for three days, and then serum-starved for 24 hours in serum-free and phenol red-free medium. 17 beta-estradiol (E2, 10 nM, Sigma, St. Louis, Mo.), PD98059 (50 μM, Cell Signaling Technology, Danvers, Mass.), or ICI 182780 (1 μM, Biomol) were added to the cells as indicated.
# as §2
# MMP2 [2] = experiment: MMP2 accumulation in cultured ELT3 cells by immunoblotting; format: cell-based, rat
# Experimental: as §3, §1
# [3] = estradiol plus drug, immunoblot
# [4] = ELT3 xenograft, given on this schedule (one day prior to cell inoculation)
# [5] = real-time RT-PCR, female mice, size-matched tumors
structure (smiles),measurement,setting,value
C[C@H]1c2cccc(O)c2C(=O)C2=C(O)[C@]3(O)C(=O)C(C(N)=O)=C(O)[C@@H](N(C)C)[C@@H]3[C@@H](O)[C@@H]21 [Doxycycline],average number of lung metastases,ELT3 cells; drug plus estradiol,9 metastases/mouse
same,range of number of lung metastases,ELT3 cells; drug plus estradiol,6-18 metastases/mouse
same,effect on estradiol-promoted lung metastases,ELT3 cells; drug plus estradiol,does not inhibit
same,mice with lung metastases,"ELT3 cells; drug plus estradiol, four of five mice",80%
same,mean tumor area,ELT3 cells; drug plus estradiol,333±142 mm^2
same,mean tumor area,ELT3 cells; drug plus placebo,193±80 mm^2
C[C@]12CC[C@@H]3c4ccc(O)cc4C[C@@H](CCCCCCCCC[S+]([O-])CCCC(F)(F)C(F)(F)F)[C@H]3[C@@H]1CC[C@@H]2O (stereo partly drawn) [Fulvestrant],effect on estradiol-promoted lung metastases,ELT3 cells; drug plus estradiol,completely blocked
same,effect on survival of estradiol-treated mice bearing xenograft tumors,"ELT3 cells; drug plus estradiol, Kaplan-Meier",significantly increased
same,mean tumor area,ELT3 cells; drug plus estradiol,259±83 mm^2
same,cell death (TUNEL staining) in xenograft tumors,ELT3 xenograft tumors; drug in estradiol-treated mice,did not affect
same,cell proliferation (Ki-67 immunoreactivity) in xenograft tumors,ELT3 xenograft tumors; drug in estradiol-treated mice,did not affect
same,ECM organization in xenograft tumors,ELT3 xenograft tumors; drug plus estradiol-treated animals,well-maintained ECM network
same,ECM organization in xenograft tumors,ELT3 xenograft tumors; drug plus placebo-treated animals,dense bundles of collagen fibers
same,ERα in tumors,ELT3 xenograft tumors; [3],lower levels
same,phospho-p42/44 MAPK in tumors,ELT3 xenograft tumors; [3],lower levels
same,effect on estradiol-stimulated MMP2 activity,"MMP2 [1]; 4 hours pretreatment, then estradiol stimulation",almost completely blocked
COc1cccc(-c2cc(=O)c3ccccc3o2)c1N [PD98059],effect on estradiol's enhancement of MMP2 accumulation,"MMP2 [2]; 30 minutes preincubation, after two hours of estradiol treatment",strongly blocked
CO[C@H]1C[C@@H]2CC[C@@H](C)[C@@](O)(O2)C(=O)C(=O)N2CCCC[C@H]2C(=O)O[C@H]([C@H](C)C[C@@H]2CC[C@@H](OCCO)[C@H](OC)C2)CC(=O)[C@H](C)/C=C(\C)[C@@H](O)[C@@H](OC)C(=O)[C@H](C)C[C@H](C)/C=C/C=C/C=C/1C [RAD001],lung metastasis,ELT3 cells; [4],completely blocked
same,subcutaneous tumor development,ELT3 cells; [4],completely blocked
"C[C@]12CC[C@@H]3c4ccc(O)cc4CC[C@H]3[C@@H]1CC[C@@H]2O [estradiol, 17 beta-estradiol]",average number of lung metastases,ELT3 cells; E2 alone,10 metastases/mouse
same,range of number of lung metastases,ELT3 cells; E2 alone,4-37 metastases/mouse
same,mice with pulmonary metastases,"ELT3 cells; E2 alone, five of nine mice",56%
same,increase in pulmonary metastasis of ELT3 cells,"ELT3 cells; E2 alone, mice bearing xenograft tumors",three- to five-fold
same,overall survival vs placebo-treated mice,"ELT3 cells; estradiol alone, mice bearing xenograft tumors",reduced overall survival
same,mean tumor area,ELT3 cells; estrogen alone,251±65 mm^2
same,type IV collagen in xenograft tumors,"ELT3 xenograft tumors; estradiol alone vs placebo, female and male mice",marked reduction
same,ECM organization in xenograft tumors,"ELT3 xenograft tumors; estradiol alone vs placebo, female and male mice, H&E",disrupted ECM network
same,MMP2 protein level vs placebo-treated,ELT3 xenograft tumors; female mice,1.8 fold
same,MMP2 protein level vs placebo-treated,ELT3 xenograft tumors; male mice,2.5 fold
same,MMP2 transcript level vs placebo-treated,ELT3 xenograft tumors; [5],5 fold
same,MMP9 transcript level vs placebo-treated,ELT3 xenograft tumors; [5],28 fold
same,progesterone receptor (PgR) level vs placebo-treated,"ELT3 xenograft tumors; real-time RT-PCR, xenograft tumors",4 fold
same,increase of MMP2 accumulation,MMP2 [2]; within two to four hours of estradiol treatment,five to seven-fold
same,increase of MMP2 activity,MMP2 [1]; estradiol stimulation for 24 hours,eight-fold
same,duration of estradiol-stimulated MMP2 activity,MMP2 [1]; up to 120 minutes stimulation,sustained throughout the 120 minutes stimulation
same,increase of active MMP2 level,MMP2 [1]; within five minutes of estradiol stimulation,three-fold
